The supplement of paper PMC10307832

Columns and labels:
Assay in all cases: relative viability (nuclei count vs DMSO), 5 days (fraction); higher = more cells survive
LCLC-97TM1 = tested on: LCLC-97TM1
In short: (§1)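 One day after seeding in 1536-well plates, lung cancer cell lines were dosed by pin tool. Dosing was either single-drug or a fixed anchor-drug dose plus five library-drug doses (not always all listed) in √10 steps. After 5 days, nuclei were stained in one fix-and-stain step and counted on 4× images, and relative viability is the nuclei count of treated wells over that of vehicle wells, given as the median of duplicate plates.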

NCI-H460 = tested on: NCI-H460
In short: as §1

LXF-289 = tested on: LXF-289
In short: as §1

HCC-78 = tested on: HCC-78
In short: as §1

HOP-62 = tested on: HOP-62
In short: as §1

A-427 = tested on: A-427
In short: as §1

EPLC-272H = tested on: EPLC-272H
In short: as §1

NCI-H1975 = tested on: NCI-H1975
In short: as §1

NCI-H358 = tested on: NCI-H358
In short: as §1

COR-L 105 = tested on: COR-L 105
In short: as §1

NCI-H2170 = tested on: NCI-H2170
In short: as §1

HCC-366 = tested on: HCC-366
In short: as §1

NCI-H1792 = tested on: NCI-H1792
In short: as §1

LU99A = tested on: LU99A
In short: as §1

NCI-H1915 = tested on: NCI-H1915
In short: as §1

NCI-H1793 = tested on: NCI-H1793
In short: as §1

NCI-H1944 = tested on: NCI-H1944
In short: as §1

UMC-11 = tested on: UMC-11
In short: as §1

LC-2-ad = tested on: LC-2-ad
In short: as §1

SK-LU-1 = tested on: SK-LU-1
In short: as §1

NCI-H2085 = tested on: NCI-H2085
In short: as §1

NCI-H1755 = tested on: NCI-H1755
In short: as §1

`C[C@@H]1CN(CC(=O)Nc2ccc3c(c2)Cc2cccc(-c4cc(=O)cc(N5CCOCC5)o4)c2S3)C[C@H](C)O1` + CS(=O)(=O)N1CCN(Cc2cc3nc(-c4cccc5[nH]ncc45)nc(N4CCOCC4)c3s2)CC1 [Pictilisib] (partner 1 µM) was tested, and the relative viability (LCLC-97TM1; first compound 0.1265 µM) was 0.191, the relative viability (LCLC-97TM1; first compound 0.4 µM) was 0.144 and the relative viability (LCLC-97TM1; first compound 4 µM) was 0.18. For the same molecule, the relative viability (NCI-H460; first compound 0.04 µM) was 0.258, the relative viability (NCI-H460; first compound 0.1265 µM) was 0.404 and the relative viability (NCI-H460; first compound 0.4 µM) was 0.279. For the same molecule, the relative viability (NCI-H460; first compound 4 µM) was 0.346, the relative viability (LXF-289; first compound 0.04 µM) was 0.852 and the relative viability (LXF-289; first compound 0.1265 µM) was 0.789. For the same molecule, the relative viability (LXF-289; first compound 0.4 µM) was 0.78, the relative viability (LXF-289; first compound 4 µM) was 0.792 and the relative viability (HCC-78; first compound 0.04 µM) was 0.208. For the same molecule, the relative viability (HCC-78; first compound 0.1265 µM) was 0.2, the relative viability (HCC-78; first compound 0.4 µM) was 0.168 and the relative viability (HCC-78; first compound 4 µM) was 0.265. For the same molecule, the relative viability (HOP-62; first compound 0.04 µM) was 0.359, the relative viability (HOP-62; first compound 0.1265 µM) was 0.626 and the relative viability (HOP-62; first compound 0.4 µM) was 0.753. For the same molecule, the relative viability (HOP-62; first compound 4 µM) was 0.605, the relative viability (A-427; first compound 0.04 µM) was 0.581 and the relative viability (A-427; first compound 0.1265 µM) was 0.674. For the same molecule, the relative viability (A-427; first compound 0.4 µM) was 0.679, the relative viability (A-427; first compound 4 µM) was 0.675 and the relative viability (EPLC-272H; first compound 0.04 µM) was 0.272. It also gave a relative viability (EPLC-272H; first compound 0.1265 µM) of 0.305, a relative viability (EPLC-272H; first compound 0.4 µM) of 0.3 and a relative viability (EPLC-272H; first compound 4 µM) of 0.289. It also gave a relative viability (NCI-H1975; first compound 0.04 µM) of 0.32, a relative viability (NCI-H1975; first compound 0.1265 µM) of 0.263 and a relative viability (NCI-H1975; first compound 0.4 µM) of 0.279. The relative viability (NCI-H1975; first compound 4 µM) was 0.298, the relative viability (NCI-H358; first compound 0.04 µM) was 0.355 and the relative viability (NCI-H358; first compound 0.1265 µM) was 0.343. It also gave a relative viability (NCI-H358; first compound 0.4 µM) of 0.3, a relative viability (NCI-H358; first compound 4 µM) of 0.247 and a relative viability (COR-L 105; first compound 0.04 µM) of 0.344. It also gave a relative viability (COR-L 105; first compound 0.1265 µM) of 0.402, a relative viability (COR-L 105; first compound 0.4 µM) of 0.375 and a relative viability (COR-L 105; first compound 4 µM) of 0.414. It also gave a relative viability (NCI-H2170; first compound 0.1265 µM) of 0.343, a relative viability (NCI-H2170; first compound 0.4 µM) of 0.274 and a relative viability (NCI-H2170; first compound 4 µM) of 0.339. For the same molecule, the relative viability (HCC-366; first compound 0.04 µM) was 0.151, the relative viability (HCC-366; first compound 0.1265 µM) was 0.142 and the relative viability (HCC-366; first compound 0.4 µM) was 0.138. The relative viability (HCC-366; first compound 4 µM) was 0.112, the relative viability (NCI-H1792; first compound 0.04 µM) was 0.242 and the relative viability (NCI-H1792; first compound 0.1265 µM) was 0.264. For the same molecule, the relative viability (NCI-H1792; first compound 0.4 µM) was 0.274, the relative viability (NCI-H1792; first compound 4 µM) was 0.287 and the relative viability (LU99A; first compound 0.04 µM) was 0.313. It also gave a relative viability (LU99A; first compound 0.1265 µM) of 0.382, a relative viability (LU99A; first compound 0.4 µM) of 0.349 and a relative viability (LU99A; first compound 4 µM) of 0.378. It also gave a relative viability (NCI-H1915; first compound 0.04 µM) of 0.888, a relative viability (NCI-H1915; first compound 0.1265 µM) of 0.961 and a relative viability (NCI-H1915; first compound 0.4 µM) of 0.97. It also gave a relative viability (NCI-H1915; first compound 4 µM) of 0.774, a relative viability (NCI-H1793; first compound 0.04 µM) of 0.374 and a relative viability (NCI-H1793; first compound 0.1265 µM) of 0.297. For the same molecule, the relative viability (NCI-H1793; first compound 0.4 µM) was 0.346, the relative viability (NCI-H1793; first compound 4 µM) was 0.335 and the relative viability (NCI-H1944; first compound 0.1265 µM) was 0.328. The relative viability (NCI-H1944; first compound 0.4 µM) was 0.336, the relative viability (NCI-H1944; first compound 4 µM) was 0.33 and the relative viability (UMC-11; first compound 0.04 µM) was 0.769. For the same molecule, the relative viability (UMC-11; first compound 0.1265 µM) was 0.791, the relative viability (UMC-11; first compound 0.4 µM) was 0.75 and the relative viability (UMC-11; first compound 4 µM) was 0.649. For the same molecule, the relative viability (LC-2-ad; first compound 0.04 µM) was 1.12, the relative viability (LC-2-ad; first compound 0.1265 µM) was 0.43 and the relative viability (LC-2-ad; first compound 0.4 µM) was 0.29. It also gave a relative viability (LC-2-ad; first compound 4 µM) of 0.537, a relative viability (SK-LU-1; first compound 0.04 µM) of 0.657 and a relative viability (SK-LU-1; first compound 0.1265 µM) of 0.594. It also gave a relative viability (SK-LU-1; first compound 0.4 µM) of 0.702, a relative viability (SK-LU-1; first compound 4 µM) of 0.484 and a relative viability (NCI-H2085; first compound 0.04 µM) of 0.476. The relative viability (NCI-H2085; first compound 0.1265 µM) was 0.484, the relative viability (NCI-H2085; first compound 0.4 µM) was 0.425 and the relative viability (NCI-H2085; first compound 4 µM) was 0.492. For the same molecule, the relative viability (NCI-H1755; first compound 0.04 µM) was 0.381, the relative viability (NCI-H1755; first compound 0.1265 µM) was 0.386 and the relative viability (NCI-H1755; first compound 0.4 µM) was 0.433. For the same molecule, the relative viability (NCI-H1755; first compound 4 µM) was 0.388.
